Data from US11072584B2, “Carbon monoxide releasing norbornenone compounds” (OTAGO INNOVATION LIMITED, priority 2015, dated 2021).
“Also recorded” adds a separate entry of the source. Counter-ions that a name gives are not always drawn. Like-named read-outs stand apart in the source and are kept apart here. Blank lines part the entries; values can stand above or below the compound they belong to.

Experiments:
[1] = test system: MDA-MB-231; assay: crystal violet cell viability assay; assay type: cell-based; conditions: for EC50: Homo sapiens; for cellular toxicity (in words): MDA-MB-231 cells
Description: The loss of cell adhesion for anchorage-dependent cell lines, such as MDCK, represents a surrogate marker of imminent cellular demise which can be measured by the crystal violet cell adhesion (CVCA) assay.^42 MDCK cells were grown in DMEM supplemented with 4% donor calf serum and 1% antibiotic (Gibco Life Technologies, Auckland NZ) and plated at 1×10^6 cells/mL in 24 well plates. CO donor compounds, CO expired compounds (left in solution for over 48 hours) or non CO releasing, debromo derivatives were dissolved in either ultrapure water or for non-water soluble compounds, in DMSO and diluted to 20-100 μM (to a final concentration of 1% DMSO where appropriate). Cells were exposed to CO donor compounds or the respective vehicle control solution for 1 hour at 37° C. prior to washing and incubating for a further 23 hours in fresh media. Cells were fixed in 96% ethanol and stained in 0.05% crystal violet solution in 20% ethanol, prior to washing and solubilising (24 hours) in 2 mL 0.1% acetic acid in 50% ethanol. Sample solutes (100 μL) from each well were transferred into a 96 well plate and absorbance measured at 585 nm. Cell survival was reported as a percentage of the value obtained for cells exposed to vehicle only and used to plot a concentration-response curve for each compound from which an EC50 value was obtained.
Toxicity was reported as EC50 values calculated from percentage cell survival using Origin Pro8 software (OriginLab, MA, USA).

[2] = test system: horse heart myoglobin; assay: carboxymyoglobin spectrophotometric assay (CO binding to myoglobin); assay type: biochemical; conditions: 25 to 400 μM; 5 to 90 minutes
Description: CO released from oCOm-19 and oCOm-21 was measured using an established carboxymyoglobin spectrophotometric assay,^39 adapted to a 96 well plate format to enable the simultaneous correction at all absorbance wavelengths arising from any potential interference from the donor compounds.^40 Freshly prepared horse heart myoglobin (66 μM) in a PBS solution (pH 7.4) was reduced with 10% w/v sodium dithionite and added to a 96 well plate. […] Absorption spectra (λ 500-600 nm) were run at ten minute intervals using a Spectramax 96-well spectrophotometer (Molecular Devices, Crawley, UK) at 37° C. CO gas saturated PBS (714 μM), was employed as a positive control.

[3] = oral bioavailability: blood carboxyhaemoglobin after oral gavage; assay type: in vivo, Sprague Dawley rats
Description: Male Sprague Dawley rats (300-320 g) were orally dosed with either oCOm-19 (133.33 μmol/kg) or oCOm-21 (33.33 μmol/kg) in ultra-pure water by oral gavage. Animals were observed every 15 minutes for any changes in behaviour or signs of distress. Tail vein blood samples were collected in heparinised capillary tubes immediately prior to and at 1-3 hours post CO-donor administration. Blood gas analysis on each sample was performed using a Radiometer ABL800 Flex analyser.

[4] = CO release by HPLC analysis of breakdown of CO donor to its CO depleted form; assay type: physicochemical
Description: HPLC grade acetonitrile (CH3CN) was purchased from Merck Chemicals. MilliQ grade H2O was obtained from a Millipore purification system. HPLC grade trifluoroacetic acid (TFA) was purchased from Scharlau. HPLC analyses were conducted on an analytical RP-HPLC (Shimadzu LC-20AD equipped with an SPD-20A UV detector [210 and 254 nm]) using a Phenomenex Prodigy column (C-18, 5 μm, 3.00×250 mm) at 0.5 mL/min and heated to 40° C. Unless otherwise stated, the solvent system for all LC purposes was a mixture of A (0.05% TFA in H2O) and B (CH3CN). The method used was 10% to 100% B over 12.5 min, then 100% B for 2.5 min, unless otherwise stated.
In addition, the rate of CO release was measured in different physiological solutions at pH 7.4, 37° C.: phosphate buffered saline (PBS), Tris-sucrose buffer and UW solution using an amperiometric CO selective electrode (ISO-COP-2, World Precision Instruments (WPI), Inc, Sarasota, USA). The amount of CO released was recorded as the magnitude of electrode current generated on CO diffusion through a selective gas permeable membrane and oxidised to CO2 on the electrode. Current changes were recorded using a WPI TRB4100 4-channel free radical analyser with the poise potential set to 950 mV. […] The effect of pH upon the release of CO was assessed by adjusting the pH of Tris sucrose buffer to pH 6.6 using HCl and to pH 8.5 using NaOH. […]

[5] = test system: isolated rat aortic rings; assay: isolated rat aortic ring vasorelaxation; parameters: species or system Lewis rats; conditions: rings pre-contracted with phenylephrine, 37° C.
Description: Transverse ring sections of aorta were isolated from male Lewis rats ([…], n=5-6 per group) under halothane anaesthesia and suspended under 2 g tension in an organ bath containing 10 mL of oxygenated (95% O2/5% CO2) Krebs Henseleit (KH) buffer containing 118 mM NaCl, 4.7 mM KCl, 1.2 mM KH2PO4, 1.2 mM MgSO4.7H2O, 22 mM NaHCO3, 11 mM glucose, 0.03 mM K^+ EDTA, and 2.5 mM CaCl2 as previously described.^43 Indomethacin (10 μM) was present in the buffer to exclude endogenous prostaglandins as potential modulators of vascular tone. Relaxation responses to oCOm-19 or oCOm-21 ([…]) were assessed using individual dosing in tissues pre-contracted with phenylephrine (0.1 μM). All results were subsequently expressed as a percentage of the maximal phenylephrine-induced contraction. Following repeat wash steps with Krebs Henseleit buffer, smooth muscle function and viability was confirmed by repeating the contractile response to phenylephrine. Aortic responses to individual EC50 concentrations of either CO donor in phenylephrine vasoconstricted rings were repeated separately, in the presence of the CO-chelator, myoglobin (5 μM) and the selective, irreversible inhibitor of sGC 1H-(1,2,4)oxadiazolo[4,3-a]quinoxalin-1-one, (ODQ, 10 μM), as previously described.^44

[6] = Solubility in water; assay type: physicochemical; conditions: for solubility (in words): water or physiological buffers
[7] = test system: MDCK cells; assay: crystal violet cell adhesion (CVCA) cell toxicity assay; conditions: Canis lupus familiaris, MDCK
[8] = test system: MDCK cells
[9] = test system: MDCK cells; assay: imaging of intracellular CO in living cells with fluorescent probe COP-1; assay type: cell-based, Canine; conditions: 10-50 μM, 37° C. and 8° C., bis-trifluoroacetate Salt
Description: A palladium CO-responsive small-molecule fluorescent probe (COP-1) was synthesised and carbonylation of the probe by CO confirmed as previously described.^41 A final concentration of 2 nM of COP-1 was added to each well of a 96-well plate containing 200 μL of Mg^2+ and Ca^2+ free phosphate solution (DPS, 37° C.). CORM-2, oCOm-19 and oCOm-21 (1-100 μM) were added to wells in triplicate, and zeroed against an equivalent volume of vehicle control added to COP-1. Emission spectra (λ 400-600 nm) were recorded at regular time intervals for one hour using a Spectromax Gemini fluorescent plate reader (Molecular Devices, Crawley, UK) at 37° C., (λex 475 nm, and the λem500 nm measured).
The ability of the CO donors to increase intracellular levels of CO was tested in Madin Darby Canine Kidney (MDCK) cells. […] Cells were incubated for 1 hour at either 8 or 37° C. then 1 μM COP-1 in DPS added per well and cells incubated for a further 15 minutes. Cells were imaged on a fluorescent inverted microscope (Nikon Eclipse Ti-E).

[10] = carboxyhaemoglobin in rats exposed to CO gas (earlier unpublished studies); assay type: in vivo; conditions: 20 ppm CO gas
[11] = *MDA-MB-231 cells, 1 hr exposure at 37° C., viability after 23 hrs, read-out: EC50 (μM), Active Compound
[12] = read-out: EC50 (μM), Active Compound
[13] = * (MDA-MB-231), inactive CO depleted analogues, 37° C., read-out: EC50 (μM), Inactive Compound

EC50 [1, 11]: 23.1 µM
Compound: CC12C(=O)C(C)(C(c3ccccc3)=C1c1ccccc1)C1(Br)C(=O)N(c3ccc(O)cc3)C(=O)C21 (stereo not shown) [oCOm-8, 3a-Bromo-3a,4,7,7a-tetrahydro-4,7-dimethyl-2-(4-hydroxyphenyl)-5,6-diphenyl-4,7-methano-1H-isoindole-1,3,8(2H)-trione]

solubility (in words) [6]: water soluble
Solubility in water at 21° C. ([6]; water, 21° C.): 3200 µg/mL
Compound: CC12C(=O)C(C)(C(c3ccccc3)=C1c1ccccc1)C1(Br)C(=O)N(CCC(=O)NCCN)C(=O)C21.Cl (stereo not shown) [oCOm-19, N-(2-Aminoethyl)-3-(3a-bromo-4,7-dimethyl-1,3,8-trioxo-5,6-diphenyl-3a,4,7,7a-tetrahydro-1H-4,7-methanoisoindol-2(2H)-yl)propanamide hydrochloride]
carbonmonoxymyoglobin formation (in words) [2]: time- and concentration-dependent increase in carbonmonoxymyoglobin formation
effect on circulating carboxyhaemoglobin (in words) ([3]; oCOm-19 and DB-13 133.3 μmol/kg, oCOm-21 33.3 μmol/kg, hydrochloride): increase in circulating carboxyhaemoglobin
behaviour / signs of distress after oral dosing ([3]; observed every 15 minutes): body pressing behaviour indicative of abdominal discomfort
time by which 50% of the donor CO maximum release capacity was depleted [4]: 40 min
vasorelaxant response (in words) ([5]; hydrochloride): reversible, concentration-dependent vasorelaxant responses; also recorded: reversible, concentration-dependent vasorelaxation; also recorded: vasorelaxant effects
EC50 [7, 12]: 86 µM

Compound: CC12C(=O)C(C)(C(c3ccccc3)=C1c1ccccc1)C1(Br)C(=O)N(CCNCCN)C(=O)C21 (stereo not shown) [oCOm-23, 2-(2-(2-Aminoethyl)aminoethyl)-3a-bromo-3a,4,7,7a-tetrahydro-4,7-dimethyl-5,6-diphenyl-4,7-methano-1H-isoindole-1,3,8(2H)-trione bis-trifluoroacetate Salt]
time by which 50% of the donor CO maximum release capacity was depleted [4]: 75 min
cellular toxicity (in words) [8]: increased toxicity
EC50 [7, 12]: 10.1 µM
EC50 ([7]; read-out: EC50 (μM), Active Compound at 8° C.): > 200 µM
intracellular CO, COP-1 / BODIPY fluorescence (in words) [9]: Increased BODIPY fluorescence intensity; also recorded: increased intracellular CO levels

solubility (in words) [6]: lack of solubility in water
EC50 [1, 11]: 216 µM
Compound: CC12C(=O)C(C)(C(c3ccccc3)=C1c1ccccc1)C1(Br)C(=O)N(CCC(=O)ON3C(=O)CCC3=O)C(=O)C21 (stereo not shown) [oCOm-17, 2,5-Dioxopyrrolidin-1-yl 3-(3a-bromo-4,7-dimethyl-1,3,8-trioxo-5,6-diphenyl-1,3,3a,4,7,7a-hexahydro-2H-4,7-methanoisoindol-2-yl)propanoate]
cellular toxicity (in words) [1]: least toxic

Compound: [C-]#[O+].[C-]#[O+].[C-]#[O+].[C-]#[O+].[C-]#[O+].[C-]#[O+].[Cl][Ru][Cl].[Cl][Ru][Cl] [CORM2, Tri-carbonyldichlororuthenium (II) dimer, reference compound]
carbonmonoxymyoglobin formation (in words) [2]: characteristic shift in the absorbance maxima of myoglobin

Compound: [C-]#[O+] [CO gas, carbon monoxide]
carboxyhaemoglobin level ([10]; 2 day duration): 1.1±0.25%
carboxyhaemoglobin level ([10]; 7 day duration): 2±0.75%

Compound: Cc1c2c(c(C)c(-c3ccccc3)c1-c1ccccc1)C(=O)N(CCC(=O)NCCN)C2=O.Cl [BP-19, N-(2-aminoethyl)-3-(4,7-dimethyl-1,3-dioxo-5,6-diphenylisoindolin-2-yl)propanamide Hydrochloride]
vasorelaxant response (in words) [5]: no vasorelaxant effect
EC50 ([7]; read-out: EC50 (μM), Inactive Compound): > 100 µM

melting point: 127 to 129 °C
EC50 [1, 13]: 196 µM
Compound: COCCOCCOCCOc1ccc(N2C(=O)c3c(C)c(-c4ccccc4)c(-c4ccccc4)c(C)c3C2=O)cc1 [BP-12, 2-(4-(2-(2-(2-Methoxyethoxy)ethoxy)ethoxy)phenyl)-4,7-dimethyl-5,6-diphenyl-1H-isoindole-1,3(2H)-dione]

EC50 [1, 11]: 183 µM
Compound: COCCOCCOCCOc1ccc(C2=C(c3ccc(OCCOCCOCCOC)cc3)C3(C)C(=O)C2(C)C2C(=O)N(c4ccc(OCCOCCOCCOC)cc4)C(=O)C23Br)cc1 (stereo not shown) [oCOm-15, 3a-Bromo-3a,4,7,7a-tetrahydro-4,7-dimethyl-2,5,6-tri-(4-(2-(2-(2-methoxyethoxy)ethoxy)ethoxy)phenyl)-4,7-methano-1H-isoindole-1,3,8(2H)-trione]

EC50 [1, 13]: 159 µM
Compound: Cc1c2c(c(C)c(-c3ccccc3)c1-c1ccccc1)C(=O)N(CCC(=O)ON1C(=O)CCC1=O)C2=O [BP-17, 2,5-Dioxo-1-pyrrolidinyl 4,7-dimethyl-5,6-diphenyl-1H-isoindole-1,3(2H)-dione-2-propanoate]

EC50 [1, 11]: 4.6 µM
Compound: CC12C(=O)C(C)(C(c3ccccc3)=C1c1ccccc1)C1(Br)C(=O)N(c3ccccc3)C(=O)C21 (stereo not shown) [oCOm-1, 3a-Bromo-3a,4,7,7a-tetrahydro-4,7-dimethyl-2,5,6-triphenyl-4,7-methano-1H-isoindole-1,3,8(2H)-trione]
cellular toxicity (in words) [1]: greatest toxicity

EC50 [1, 13]: > 200 µM
Compound: COCCOCCOCCOc1ccc(-c2c(C)c3c(c(C)c2-c2ccc(OCCOCCOCCOC)cc2)C(=O)N(c2ccc(OCCOCCOCCOC)cc2)C3=O)cc1 [BP-15, 2,5,6-Tri-(4-(2-(2-(2-methoxyethoxy)ethoxy)ethoxy)phenyl)-4,7-dimethyl-1H-isoindole-1,3(2H)-dione]

melting point: 260 °C
EC50 [1, 13]: > 200 µM
Compound: Cc1c2c(c(C)c(-c3ccccc3)c1-c1ccccc1)C(=O)N(c1ccccc1)C2=O [BP-1, 4,7-Dimethyl-2,5,6-triphenyl-1H-isoindole-1,3(2H)-dione]
